In data set [1] the test system is rodents. Particulars: cited from earlier work; for Dopaminergic stereotypic behavioral effects (sniffing, rearing): gross behavioral observations, certain dosages, rodents; for Locomotor activity: photocell motility meters.
Data set [2] deals with Dopa accumulation. Particulars: normal animals, after NSD1015; cited from earlier work.
The target in data set [3] is D3 dopamine receptor (Rattus norvegicus, UniProt P19020). The note with it: among screened classical and atypical neuroleptics; cited from earlier work.
Data set [4] relates to DA metabolites DOPAC and HVA. Particulars: no NSD1015 treatment; cited from earlier work.
Data set [5] deals with rats. Put plainly: Behavioral testing in rats of GMC6650. Type of data set: in vivo, rat. As to the method:
Behavioral Testing in Rats of Compound GMC6650 (Example 6)
One rat, weighing about 350 g, was injected SC in the neck with 1 μmol/kg of GMC6650. Another rat, weighing about 350 g, was injected PO with the same dose. The drug (3.4 mg) was initially dissolved in: ethanol (50 μL), 1 M acetic acid (2 drops), and water (1.4 mL), corresponding to 15 μmol per 1.5 mL, which means a concentration of 10 μmol/mL. By first diluting that solution 10 times and injecting 0.35 mL, the given dose will be 1 μmol/kgμmol/kg. This goes for both of rats.
Stereotypy was intense and was registered for several hours by visual inspection. […] The next morning, the SC rat was still active, while the PO rat was resting. Duration of action was thus ≧10 h for both sc and po administration of 1 μmol/kg.

Data set [6] deals with DA receptors. Particulars: cited from earlier work.
The test system of data set [7] is rats. The note with it: cited from earlier work.
The mark [8] stands for this setting: 1 μmol/kg, SC or PO (same pattern in both rats).

Structures can show the parent of a compound that is named as a salt.

What is called melting point is the temperature, or range, at which the solid turns liquid.

Sequence of D3 dopamine receptor (P19020 whole entry): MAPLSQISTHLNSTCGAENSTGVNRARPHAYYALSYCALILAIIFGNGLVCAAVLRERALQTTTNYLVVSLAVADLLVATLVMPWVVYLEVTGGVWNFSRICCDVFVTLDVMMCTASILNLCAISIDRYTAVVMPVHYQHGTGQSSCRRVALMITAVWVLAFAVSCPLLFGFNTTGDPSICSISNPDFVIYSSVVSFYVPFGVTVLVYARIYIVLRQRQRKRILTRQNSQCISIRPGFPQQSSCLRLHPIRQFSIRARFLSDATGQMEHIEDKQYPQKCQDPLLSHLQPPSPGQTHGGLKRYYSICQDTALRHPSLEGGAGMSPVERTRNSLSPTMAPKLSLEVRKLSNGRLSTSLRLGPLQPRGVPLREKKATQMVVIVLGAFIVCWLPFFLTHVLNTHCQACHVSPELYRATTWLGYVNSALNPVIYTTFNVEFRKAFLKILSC

As for `CCN(CC)CCC1=CC(=O)CCC1` (as salt: hydrochloride), the melting point fell in the range of 148 to 149 °C.
For `CCCN[C@@H]1CCc2c(OC)cccc2[C@@H]1C` (relative stereo) [(+)-AJ76, (+)-cis-1S,2R-5-methoxy-1-methyl-2-(N-n-propylamino)tetralin], in data set [1], the “Dopaminergic stereotypic behavioral effects (sniffing, rearing)” value was “weak” and the Locomotor activity result is recorded as “increase the locomotor activity”. In addition, the Dopa accumulation entry in data set [2] is “raise the Dopa accumulation”. Also, the “Preference for the D3 site” value in data set [3] is given as “highest preference for the D3 site”. Besides, the “Levels of DA metabolites DOPAC and HVA” value in data set [4] is “raise the levels”.
Consider `CCCN1CCC[C@@H]2CC3=C(CCCC3=O)C[C@H]21` (relative stereo) [GMC6650, 1-Propyl-trans-2,3,4,4a,5,7,8,9,10,10a-decahydrobenzo[g]quinolin-6-one], for which the “Activity the next morning” value in data set [5] (1 μmol/kg PO) is on record as “resting”. Moreover, the “Activity the next morning” value in data set [5] (1 μmol/kg SC) is “still active”. Moreover, the Duration of action in data set [5] (1 μmol/kg po) is recorded as not below 10 h. In data set [5] (1 μmol/kg sc), this compound registered a Duration of action not below 10 h. For the same compound, the “Stereotypy after 10 hours” value in data set [5] (1 μmol/kg, SC and PO rat, 10 hours after dosing) is recorded as “still showing signs of stereotypy”. In data set [5] (setting [8]), the “Time until clear signs of stereotypy” value stood at 30 min; the “Time until obvious dopaminergic effects (chewing, sniffing, licking, penile grooming, grooming)” value was found to be 15 min; the “Time until rats became sedated, closing or partly closing their eyes” value stood at 10 min. Moreover, the “Stereotypy, visual inspection” value in data set [5] (1 μmol/kg, SC or PO, registered for several hours) was “intense”.
Take `CCCN(CCC)[C@@H]1CCc2c(OC)cccc2[C@@H]1C` (relative stereo) [(+)-UH232, (+)-cis-1S,2R-5-methoxy-1-methyl-2-(N,N-di-n-propylamino)tetralin]: in data set [1], the “Dopaminergic stereotypic behavioral effects (sniffing, rearing)” value is recorded as “weak” and the Locomotor activity result is reported as “increase the locomotor activity”. In addition, the Dopa accumulation entry in data set [2] is reported as “raise the Dopa accumulation”. In addition, the “Preference for the D3 site” value in data set [3] is “highest preference for the D3 site”. The “Levels of DA metabolites DOPAC and HVA” value in data set [4] is on record as “raise the levels”.
For `CCCN(CCC)C1CCC2=C(CCCC2=O)C1` (racemic) [(±)-5-keto-DPATT, (±)-5-keto-2-N,N-di-n-propylamino-tetrahydrotetralin], the “Affinity to DA receptors (in vitro binding)” value in data set [6] is reported as “no affinity”. Also, the “Dopaminergic effects in vivo” value in data set [7] is “does possess dopaminergic effects”.
Turning to `CCCN(CCC1=CC(=O)CCC1)CCc1ccccc1` (as salt: hydrochloride), the melting point lay within 110 to 112 °C.
Still for that read-out and setting: for `CCCN1CCCC(C2=CC(=O)CCC2)C1` (stereo not shown) (as salt: hydrochloride) the value was 184 to 185 °C; for `CCCN(CCC)CCC1=CC(=O)CCC1` (as salt: hydrochloride), 95 to 97 °C.

Source of the values: patent USRE43244E1, “Phenylethylamines and condensed rings variants as prodrugs of catecholamines, and their use” (priority 2001, dated 2012).
